According to paper PMC8131363 (Scientific Reports, 2021):

Experiments:
cCaSR [1] = biological target: T1, cCaSR (Felis catus, UniProt C7FF08); assay: cCaSR transiently expressed in HEK293/natClytin, agonist luminescence assay; type: cell-based; conditions: transiently expressed cCaSR; > 3 mM = maximal response not reached; read-out: cCaSR EC50
T1 sequence (C7FF08 1-1081): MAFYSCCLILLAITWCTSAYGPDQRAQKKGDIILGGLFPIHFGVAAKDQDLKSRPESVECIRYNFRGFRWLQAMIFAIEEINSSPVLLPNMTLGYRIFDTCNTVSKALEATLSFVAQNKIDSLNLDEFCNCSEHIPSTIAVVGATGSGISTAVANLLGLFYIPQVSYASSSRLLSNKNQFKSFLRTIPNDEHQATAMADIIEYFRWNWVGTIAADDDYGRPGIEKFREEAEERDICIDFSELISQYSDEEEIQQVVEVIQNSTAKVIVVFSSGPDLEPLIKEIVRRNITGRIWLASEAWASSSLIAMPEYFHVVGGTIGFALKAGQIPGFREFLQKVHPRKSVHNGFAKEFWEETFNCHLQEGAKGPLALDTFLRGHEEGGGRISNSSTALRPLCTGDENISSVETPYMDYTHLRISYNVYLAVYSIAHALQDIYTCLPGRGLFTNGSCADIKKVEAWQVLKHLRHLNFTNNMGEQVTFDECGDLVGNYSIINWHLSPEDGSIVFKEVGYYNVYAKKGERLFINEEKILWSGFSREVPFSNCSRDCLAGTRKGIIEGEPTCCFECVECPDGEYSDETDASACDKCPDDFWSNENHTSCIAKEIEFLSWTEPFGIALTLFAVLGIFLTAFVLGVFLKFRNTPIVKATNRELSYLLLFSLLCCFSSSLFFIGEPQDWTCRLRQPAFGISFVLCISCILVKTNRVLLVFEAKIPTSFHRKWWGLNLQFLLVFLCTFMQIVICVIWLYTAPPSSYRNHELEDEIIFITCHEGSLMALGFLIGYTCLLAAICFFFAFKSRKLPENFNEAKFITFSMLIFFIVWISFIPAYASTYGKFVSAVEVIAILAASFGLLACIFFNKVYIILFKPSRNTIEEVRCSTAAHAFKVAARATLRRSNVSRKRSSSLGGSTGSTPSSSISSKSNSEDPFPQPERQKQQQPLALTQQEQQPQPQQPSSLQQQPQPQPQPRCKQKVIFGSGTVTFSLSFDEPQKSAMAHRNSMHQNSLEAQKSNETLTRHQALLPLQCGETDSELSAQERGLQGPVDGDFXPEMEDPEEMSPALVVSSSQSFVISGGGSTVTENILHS
Protocol: The coding sequence of the Felis catus[52] and Homo sapiens[53] CaSR gene was synthesised by GeneArt (Thermo Fisher Scientific). The cat coding sequence was excised from the GeneArt construct and inserted in pcDNA3.1 for constitutive and transient expression or pcDNA5/ TO for inducible expression. For the human sequence the pcDNA6 vector as delivered by GeneArt was used without further sub-cloning.
All transient transfections were performed with Lipofectamine 2000 (Invitrogen) according to the manufacturer’s protocol.

human sensory panel = human sensory panel triangle test; type: in vivo; conditions: humans, CaCl2 8 mM, MgCl2 8 mM; for % correct, triangle test in umami mix: GSH 0.65 mM in MSG/IMP/NaCl mix vs mix blank; for % correct, triangle test in water: GSH 0.65 mM in mineral water vs blank
Protocol: All solutions were prepared using a commercial mineral water, Highland Spring (Highland Spring group, Blackford, UK) previously tested on our taste sensory panel and found to have the lowest level of inherent taste, thus being the least disruptive to taste tests. All taste-active substances were food-grade or of the highest available purity.
For tests with CaCl2, MgCl2, and GSH, each compound was dissolved directly in water, at 8 mM, 8 mM and 0.65 mM, respectively. Each compound was also tested in a mixture of umami and salty compounds, previously described in kokumi sensory evaluation, composed of 0.02% MSG, 0.02% IMP and 0.07% NaCl.
The human sensory panel experimental protocols were approved by the Waltham Animal Welfare and Ethical Review Board and all methods were carried-out in accordance with all local regulations and guidelines. Informed consent was obtained from all subjects, and all participants were over the legal age of consent. All assessors used for the tests were validated following the process outlined in ISO 8586:2012(E). Briefly, all assessors were evaluated on their capacity to recognise tastants from blank solutions and successfully identify the basic taste modalities presented. The panellists were also assessed on their ability to correctly rank solutions of a tastant in ascending concentration order. The measures for successful validation of panellists were applied to all who completed the assessment.
For the kokumi tastant tests, six tests in all were completed, two with each CaSR agonist chosen CaCl2, MgCl2, or GSH. The number of participating panellists for each test varied between twenty-four and twenty-five. […] No replicate evaluations were done by the same assessor. For each compound, the assessors were presented with […] separate forced choice triangle tests. In the first test, the compound was dissolved in spring water and compared to a blank of pure spring water, in the second the compound was dissolved into the previously described umami mix[8] and compared to a blank of the umami mix. In each separate test, the panellists were presented with the samples in a randomised order to eliminate potential bias. Panellists were presented either two blanks and a sample or two samples and a blank and asked to identify the sample that was different in the triad. Panellists were asked to give a brief description of why the sample chosen was different. If they were unable to detect a difference, the assessors were instructed to choose a sample at random and specify in the description that they were unable to make a difference between the samples[61].
The data was analysed for statistical significance using a standard methodology described in[61]. For this, the number of correct answers were compared to the number of assessors in each test, at the α-risk level chosen for the test. […] As determined by a one tailed test, the minimum number of panellists required to successfully determine difference between samples was thirteen for the chosen α value.
Initially, a contingency table of the number of correct answers and the number of wrong answers was created for each test. Then, Pearson’s chi-square test was then applied to the resulting table, with the probability of a correct answer at random being 1/ 3, while the probability of a wrong answer was 2/ 3.

cCaSR [2] = biological target: T1, cCaSR; assay: cCaSR PAM luminescence assay, double injection with 0.5 mM CaCl2, HEK293/T-REx/natClytin-cCaSR; conditions: Supplementary Table I, PAM assay, dash = no activity

EC50 (cCaSR [1]) | EC50 PAM (M) (cCaSR [2]) | Structure (SMILES) | % correct, triangle test in umami mix (human sensory panel) | % correct, triangle test in water (human sensory panel)
8.6 mM | - | [Cl-].[Cl-].[Mg+2] [Mg^2+, MgCl2] | 50% | 50%
> 3 mM | - | N[C@@H](CCC(=O)N[C@@H](CS)C(=O)NCC(=O)O)C(=O)O [Glutathione] | 58.3% | 37.5%
1.15 mM | - | [Ca+2].[Cl-].[Cl-] [Ca^2+, CaCl2] | 36% | 56%
